Experimental data from ChEMBL document CHEMBL3046519, “Synthesis and biological evaluation of some pyrazole derivatives as anti-inflammatoryantibacterial agents” (2012).
≈ marks a conversion by molar mass, not a printed value. Calls of active or inactive are those of the source. The calls are words filed in the database; no cut-off is given here.

What was measured:
Bacillus subtilis [1] = test: Antibacterial activity against Bacillus subtilis MTCC 121 by NCCLS broth macrodilution method; format: functional
Staphylococcus aureus [2] = test: Antibacterial activity against Staphylococcus aureus MTCC 96 by NCCLS broth macrodilution method; format: functional
Escherichia coli = test: Antibacterial activity against Escherichia coli MTCC 1652 at 4 mg/ml after 24 hr by agar well diffusion method; format: functional, organism-based
Bacillus subtilis [3] = test: Antibacterial activity against Bacillus subtilis MTCC 121 at 4 mg/ml after 24 hr by agar well diffusion method; format: functional; conditions: MTCC 121, 24 h, read-out: DIZ
Staphylococcus aureus [4] = test: Antibacterial activity against Staphylococcus aureus MTCC 96 at 4 mg/ml after 24 hr by agar well diffusion method; format: functional; conditions: MTCC 96, 24 h, read-out: DIZ
Rattus norvegicus [5] = test: Anti-inflammatory activity in Rattus norvegicus Wistar albino (rat) assessed as inhibition of carrageenan-induced paw edema at 50 mg/kg, po administered for 30 min prior to carrageenan challenge measured at 4 hr relative to control; format: functional
Rattus norvegicus [6] = test: Anti-inflammatory activity in Rattus norvegicus Wistar albino (rat) assessed as inhibition of carrageenan-induced paw edema at 50 mg/kg, po administered for 30 min prior to carrageenan challenge measured at 3 hr relative to control; format: functional
Rattus norvegicus [7] = test: Anti-inflammatory activity in Rattus norvegicus Wistar albino (rat) assessed as inhibition of carrageenan-induced paw edema at 50 mg/kg, po administered for 30 min prior to carrageenan challenge measured at 2 hr relative to control; format: functional
Rattus norvegicus [8] = test: Anti-inflammatory activity in Rattus norvegicus Wistar albino (rat) assessed as inhibition of carrageenan-induced paw edema at 50 mg/kg, po administered for 30 min prior to carrageenan challenge measured at 1 hr relative to control; format: functional
Pseudomonas aeruginosa = conditions: MTCC 741, 4 mg/ml
Description: Antibacterial activity against Pseudomonas aeruginosa MTCC 741 at 4 mg/ml after 24 hr by agar well diffusion method

Compound | MIC (Bacillus subtilis [1]) | MIC (Staphylococcus aureus [2]) | diameter of the inhibition zone (DIZ) (Escherichia coli) | zone of inhibition at 4000 µg/mL (Bacillus subtilis [3]) | zone of inhibition at 4000 µg/mL (Staphylococcus aureus [4]) | inhibition in vivo at 50 mg/kg (Rattus norvegicus [5]) | inhibition in vivo at 50 mg/kg (Rattus norvegicus [6]) | inhibition in vivo at 50 mg/kg (Rattus norvegicus [7]) | inhibition in vivo at 50 mg/kg (Rattus norvegicus [8]) | DIZ (Pseudomonas aeruginosa)
Cc1ccc(-c2nn(-c3ccc(S(N)(=O)=O)cc3)cc2/C=N/Nc2nc(-c3ccccc3)cs2)cc1 | > 128 µg/mL | > 128 µg/mL | inactive | 13.6 mm | 15.3 mm | 56% | 75% | 60% | 33% | inactive
COc1ccc(-c2nn(-c3ccc(S(N)(=O)=O)cc3)cc2/C=N/Nc2nc(-c3ccc(Cl)cc3)cs2)cc1 | > 128 µg/mL | > 128 µg/mL | inactive | 14.3 mm | 13.6 mm | 71% | 69% | 66% | 32% | inactive
COc1ccc(-c2nn(-c3ccc(S(N)(=O)=O)cc3)cc2/C=N/Nc2nc(-c3ccc(C)cc3)cs2)cc1 | 128 µg/mL (≈ 235 µM) | 64 µg/mL (≈ 118 µM) | inactive | 17.3 mm | 20.6 mm | 70% | 72% | 65% | 37% | inactive
NS(=O)(=O)c1ccc(-n2cc(/C=N/Nc3nc(-c4ccc(Cl)cc4)cs3)c(-c3ccc(Cl)cc3)n2)cc1 | > 128 µg/mL | > 128 µg/mL | inactive | 15 mm | 14.6 mm | 58% | 73% | 67% | 28% | inactive
NS(=O)(=O)c1ccc(-n2cc(/C=N/Nc3nc(-c4ccccc4)cs3)c(-c3ccccc3)n2)cc1 | > 128 µg/mL | > 128 µg/mL | inactive | 14.6 mm | 14.3 mm | 72% | 69% | 71% | 33% | inactive
NS(=O)(=O)c1ccc(-n2cc(/C=N/Nc3nc(-c4ccc(Cl)cc4)cs3)c(-c3ccccc3)n2)cc1 | > 128 µg/mL | > 128 µg/mL | inactive | 15.3 mm | 13.6 mm | 70% | 75% | 72% | 32% | inactive
Cc1ccc(-c2nn(-c3ccc(S(N)(=O)=O)cc3)cc2/C=N/NC(N)=S)cc1 | > 128 µg/mL | > 128 µg/mL | inactive | 14.3 mm | 16.3 mm | 70% | 75% | 72% | 32% | inactive
NS(=O)(=O)c1ccc(-n2cc(/C=N/Nc3nc(-c4ccccc4)cs3)c(-c3ccc(F)cc3)n2)cc1 | > 128 µg/mL | > 128 µg/mL | inactive | 16.6 mm | 14.6 mm | 56% | 65% | 60% | 11% | inactive
COc1ccc(-c2nn(-c3ccc(S(N)(=O)=O)cc3)cc2/C=N/Nc2nc(-c3ccccc3)cs2)cc1 | > 128 µg/mL | > 128 µg/mL | inactive | 15.6 mm | 15.3 mm | 61% | 61% | 65% | 32% | inactive
Cc1ccc(-c2csc(N/N=C/c3cn(-c4ccc(S(N)(=O)=O)cc4)nc3-c3ccc(Cl)cc3)n2)cc1 | > 128 µg/mL | > 128 µg/mL | inactive | 14.6 mm | 15.3 mm | 73% | 70% | 61% | 5% | inactive
NS(=O)(=O)c1ccc(-n2cc(/C=N/Nc3nc(-c4ccc(Cl)cc4)cs3)c(-c3ccc(F)cc3)n2)cc1 | > 128 µg/mL | > 128 µg/mL | inactive | 13.3 mm | 14.3 mm | 75% | 73% | 29% | 35% | inactive
NC(=S)N/N=C/c1cn(-c2ccc(S(N)(=O)=O)cc2)nc1-c1ccccc1 | 64 µg/mL (≈ 160 µM) | 128 µg/mL (≈ 320 µM) | inactive | 19.6 mm | 17 mm | 63% | 67% | 59% | 35% | inactive
NC(=S)N/N=C/c1cn(-c2ccc(S(N)(=O)=O)cc2)nc1-c1ccc(F)cc1 | > 128 µg/mL | > 128 µg/mL | inactive | 15.3 mm | 15.6 mm | 75% | 73% | 75% | 24% | inactive
Cc1ccc(-c2csc(N/N=C/c3cn(-c4ccc(S(N)(=O)=O)cc4)nc3-c3ccccc3)n2)cc1 | > 128 µg/mL | > 128 µg/mL | inactive | 14.6 mm | 15 mm | 60% | 57% | 65% | 28% | inactive
NC(=S)N/N=C/c1cn(-c2ccc(S(N)(=O)=O)cc2)nc1-c1ccc(Cl)cc1 | > 128 µg/mL | > 128 µg/mL | inactive | 13.6 mm | 14 mm | 71% | 77% | 76% | 33% | inactive
NS(=O)(=O)c1ccc(-n2cc(/C=N/Nc3nc(-c4ccccc4)cs3)c(-c3ccc(Cl)cc3)n2)cc1 | > 128 µg/mL | > 128 µg/mL | inactive | 15.6 mm | 13.3 mm | 56% | 57% | 62% | 22% | inactive
Cc1ccc(-c2csc(N/N=C/c3cn(-c4ccc(S(N)(=O)=O)cc4)nc3-c3ccc(F)cc3)n2)cc1 | > 128 µg/mL | > 128 µg/mL | inactive | 14.3 mm | 15.6 mm | 70% | 73% | 72% | 33% | inactive
Cc1ccc(-c2nn(-c3ccc(S(N)(=O)=O)cc3)cc2/C=N/Nc2nc(-c3ccc(Cl)cc3)cs2)cc1 | > 128 µg/mL | > 128 µg/mL | inactive | 15.3 mm | 14.6 mm | 57% | 60% | 60% | 32% | inactive
Cc1ccc(-c2csc(N/N=C/c3cn(-c4ccc(S(N)(=O)=O)cc4)nc3-c3ccc(C)cc3)n2)cc1 | > 128 µg/mL | > 128 µg/mL | inactive | 14 mm | 13.6 mm | 61% | 75% | 72% | 24% | inactive
COc1ccc(-c2nn(-c3ccc(S(N)(=O)=O)cc3)cc2/C=N/NC(N)=S)cc1 | > 128 µg/mL | > 128 µg/mL | inactive | 15 mm | 13.6 mm | 71% | 59% | 76% | 28% | inactive
